This passage reports Yield results from patent US20140007502A1, “METHODS AND COMPOSITIONS FOR INCREASED PLANT YIELD” (priority 2011, published 2014).

Type in all cases: in vivo
The test system of assay [1] is maize variety Famoso (NK Seeds). As to the kind of experiment: Maize field trial yield, Milano, Italy, 163 days (Example 3). The following applies: treatment at BBCH 14. An excerpt: (§1) Plots of suitable size in Valais, Switzerland were planted with maize hybrid COOLER™ (NK Seeds) at a conventional amount of seeds per hectare (in this example, 99,000) and at an increased density amount of seeds per hectare (in this example, 125,000).
(§2) Each density area was divided into four separate treatments—an untreated control, treatment with trinexapac ethyl (0.6 l/Ha of MODDUS™ 250EC which has 250 g trinexapac ethyl per liter) at BBCH 14, treatment with azoyxstrobin (1 l/Ha of a formulated product having 141.4 g azoxystrobin per liter in the form of QUILT® (Syngenta Crop Protection AG) which also contains 122.4 g propiconazole per liter) at BBCH 14, and treatment with trinexapac ethyl (0.6 l/Ha of 250 g/l product) and azoxystrobin (1 l/Ha of 141.4 g/l product) at BBCH 14.
(§3) Best practices were used consistently across the test plots with regard to field conditions such as fertilisation and irrigation and all other measures like weed and insect control. There was no fungal disease pressure. After a growing season of 188 days (29 Apr. 2011 to 3 Nov. 2011), each plot was harvested using a standard harvester. After shelling, the kernels were weighed at 14% moisture and the calculations extrapolated to a ton per hectare yield.
Plots were prepared and treated according to the procedure described in Example 2. The differences were that the location was Milano, Italy and the variety was Famoso (NK Seeds). The growing season was 163 days (18 Apr. 2011 to 28 Sep. 2011).

Assay [2] has as its system maize variety Terada (NK Seeds). The assay can be described thus: Maize field trial yield, Oise, France (Example 4). Conditions: treatment at BBCH 14, 182 days.
Text: as §1, §2, §3
Plots were prepared and treated according to the procedure described in Example 2. The differences were that the location was Oise, France and the variety was Terada (NK Seeds). The growing season was 182 days (14 Apr. 2011 to 13 Oct. 2011).

For assay [3], the system named is maize variety Famoso (NK Seeds). The assay can be described thus: Maize field trial yield, Milano, Italy, 158 days (Example 5). Conditions: treatment at BBCH 14.
Text: as §1, §2, §3
Plots were prepared and treated according to the procedure described in Example 2. The differences were that the location was Milano, Italy and the variety was Famoso (NK Seeds). The growing season was 158 days (15 Apr. 2011 to 20 Sep. 2011).

In assay [4] the test system is maize variety DeliTop (NK Seeds). The assay can be described thus: Maize field trial yield, Niedersachsen, Germany (Example 6). The following applies: treatment at BBCH 14, 184 days.
Text: as §1, §2, §3
Plots were prepared and treated according to the procedure described in Example 2. The differences were that the location was Niedersachsen, Germany and the variety was DeliTop (NK Seeds). The growing season was 184 days (1 May 2011 to 1 Nov. 2011).

In assay [5] the test system is maize hybrid (Famoso, NK Seeds). The assay can be described thus: Maize field plots, kernel yield at conventional and increased plant density (Example 1). Conditions: kernels at 14% moisture. An excerpt:
Plots measuring 25×40 meters were planted with a common maize hybrid (Famoso, NK Seeds). Eight plots were planted according to density strategies considered optimum prior to the disclosure of the present invention: rows were spaced 75 cm apart, allowing for 16 rows per plot which had 19 cm between plants. Another eight plots were planted with maize at increased density: spacing between rows was 45 cm, giving 24 rows per plot with 22 cm between plants. Thus the density was 7 plants/m^2 for conventional density and 10 plants/m^2 for increased density.
In the 8 plots of conventional density two were untreated controls. Three were treated with a foliar application at stage BBCH 14-15; one with trinexapac ethyl, one with azoxystrobin, and one with a mixture of trinexapac and azoyxstrobin. The remaining three were treated with a foliar application at stage BBCH 31-32; one with trinexapac ethyl, one with azoxystrobin, and one with a mixture of trinexapac and azoyxstrobin. The 8 plots planted at increased density were treated at the same stages and with the same agents as for the conventional density plots. Best practices were used consistently across the test plots with regard to field conditions such as fertilisation and irrigation and all other measures like weed and insect control.
At maturity, each plot was harvested using a standard harvester. After shelling, the kernels were weighed at 14% moisture and the calculations extrapolated to a ton per hectare yield.

Assay [6] has as its system maize hybrid COOLER (NK Seeds). The assay can be described thus: Maize field trial yield, Valais, Switzerland (Example 2). The following applies: treatment at BBCH 14, 188 days.
Text: as §1, §2, §3

[7] abbreviates: plant density 7 plants/m^2, foliar application at BBCH 14-15.
[8] abbreviates: plant density 7 plants/m^2, foliar application at BBCH 31-32.
[9] abbreviates: plant density 10 plants/m^2, foliar application at BBCH 14-15.
Setting [10] is: plant density 10 plants/m^2, foliar application at BBCH 31-32.

For the compound `CO/C=C(/C(=O)OC)c1ccccc1Oc1cc(Oc2ccccc2C#N)ncn1` [Azoxystrobin, azoxystrobin], the Yield in assay [1] (73,000 seeds per hectare) is listed as 11.6 tons/ha; in assay [1] (94,000 seeds per hectare), 12.2 tons/ha; in assay [2] (70,000 seeds per hectare) it was 11.2 tons/ha; in assay [2] (100,000 seeds per hectare), 13.6 tons/ha; in assay [3] (74,000 seeds per hectare), 14.0 tons/ha; in assay [3] (94,000 seeds per hectare), 15.0 tons/ha. The Yield in assay [4] (72,000 seeds per hectare) is reported as 11.4 tons/ha; in assay [4] (111,000 seeds per hectare) it was 11.1 tons/ha; in assay [5] (setting [7]) it was 16.67 tons/ha; in assay [5] (setting [8]), 17.28 tons/ha; in assay [5] (setting [9]), 20.11 tons/ha; in assay [5] (setting [10]) it was 19.58 tons/ha. The Yield in assay [6] (99,000 seeds per hectare) was determined as 14.1 tons/ha; in assay [6] (125,000 seeds per hectare), 17.8 tons/ha.
Turning to `CCOC(=O)C1CC(=O)C(=C(O)C2CC2)C(=O)C1` (stereo not shown) [Trinexapac Ethyl, trinexapac ethyl], the Yield in assay [1] (73,000 seeds per hectare) is recorded as 11.3 tons/ha; in assay [1] (94,000 seeds per hectare) it was 12.1 tons/ha; in assay [2] (70,000 seeds per hectare), 10.5 tons/ha; in assay [2] (100,000 seeds per hectare), 14.6 tons/ha; in assay [3] (74,000 seeds per hectare) it was 13.7 tons/ha; in assay [3] (94,000 seeds per hectare) it was 14.7 tons/ha. In addition, the Yield was found to be 11.4 tons/ha in assay [4] (72,000 seeds per hectare); 11.0 tons/ha in assay [4] (111,000 seeds per hectare); 16.82 tons/ha in assay [5] (setting [7]); 16.70 tons/ha in assay [5] (setting [8]); 19.85 tons/ha in assay [5] (setting [9]); 19.41 tons/ha in assay [5] (setting [10]). Also, the values for the Yield in assay [6] (99,000 seeds per hectare) and in assay [6] (125,000 seeds per hectare) were 14.0 tons/ha and 18.6 tons/ha, respectively.
